Data on 13 compounds can be found in US10981926B2 (Janssen Pharmaceutica NV, priority 2016, dated 2021).

Where two headings read alike, the source gives them in different places. Some results are limits rather than exact numbers.

Type in all cases: cell-based
The target of assay [1] is T1, wild-type Androgen Receptor (AR-wt) (Homo sapiens (Human), UniProt P10275). Description: LNCaP-AR-wt ANT reporter assay (antagonist mode). The following applies: for Emax: read-out: LNCaP-AR-wt ANT MAX % Inh.
For assay [2], the target named is T2, F876L mutant Androgen Receptor (AR-F876L) (Homo sapiens (Human), UniProt P10275, F877L). The assay is described as follows: LNCaP-AR-F876L ANT reporter assay (antagonist mode). The following applies: for Emax: read-out: LNCaP-AR-F876L ANT MAX % Inh.
Assay [3] has as its target T1, wild-type Androgen Receptor (AR-wt). The assay is described as follows: LNCaP-AR-wt AG reporter assay (agonist mode). The note with it: for Emax: read-out: LNCaP-AR-wt AG MAX % Stim.
Assay [4] addresses T2, F876L mutant Androgen Receptor (AR-F876L). Description: LNCaP-AR-F876L AG reporter assay (agonist mode). The following applies: for Emax: read-out: LNCaP-AR-F876L AG MAX % Stim.
Setting [5] is: antagonist mode, maximum % inhibition of R1881 control response over tested concentration range.
Setting [6] is: antagonist mode, pIC50 = −Log10(IC50 in Molar), read-out: LNCaP-AR-wt ANT pIC50 (converted).
Where [7] appears, read: antagonist mode, pIC50 = −Log10(IC50 in Molar), read-out: LNCaP-AR-F876L ANT pIC50 (converted).
Where [8] appears, read: agonist mode, maximum % stimulation over tested concentration range.
Setting [9] is: agonist mode, pEC50 = −Log10(EC50 in Molar), read-out: LNCaP-AR-wt AG pEC50 (converted).
[10] abbreviates: agonist mode, pEC50 = −Log10(EC50 in Molar), read-out: LNCaP-AR-F876L AG pEC50 (converted).
[11] abbreviates: maximum % inhibition of R1881 control response over the tested concentration range.
Setting [12] is: maximum % stimulation (agonist response) over the tested concentration range.
Where [13] appears, read: antagonist mode, pIC50 = −Log10(IC50 in Molar).
Setting [14] is: agonist mode, pEC50 = −Log10(EC50 in Molar).

T2 sequence (P10275 whole entry F877L): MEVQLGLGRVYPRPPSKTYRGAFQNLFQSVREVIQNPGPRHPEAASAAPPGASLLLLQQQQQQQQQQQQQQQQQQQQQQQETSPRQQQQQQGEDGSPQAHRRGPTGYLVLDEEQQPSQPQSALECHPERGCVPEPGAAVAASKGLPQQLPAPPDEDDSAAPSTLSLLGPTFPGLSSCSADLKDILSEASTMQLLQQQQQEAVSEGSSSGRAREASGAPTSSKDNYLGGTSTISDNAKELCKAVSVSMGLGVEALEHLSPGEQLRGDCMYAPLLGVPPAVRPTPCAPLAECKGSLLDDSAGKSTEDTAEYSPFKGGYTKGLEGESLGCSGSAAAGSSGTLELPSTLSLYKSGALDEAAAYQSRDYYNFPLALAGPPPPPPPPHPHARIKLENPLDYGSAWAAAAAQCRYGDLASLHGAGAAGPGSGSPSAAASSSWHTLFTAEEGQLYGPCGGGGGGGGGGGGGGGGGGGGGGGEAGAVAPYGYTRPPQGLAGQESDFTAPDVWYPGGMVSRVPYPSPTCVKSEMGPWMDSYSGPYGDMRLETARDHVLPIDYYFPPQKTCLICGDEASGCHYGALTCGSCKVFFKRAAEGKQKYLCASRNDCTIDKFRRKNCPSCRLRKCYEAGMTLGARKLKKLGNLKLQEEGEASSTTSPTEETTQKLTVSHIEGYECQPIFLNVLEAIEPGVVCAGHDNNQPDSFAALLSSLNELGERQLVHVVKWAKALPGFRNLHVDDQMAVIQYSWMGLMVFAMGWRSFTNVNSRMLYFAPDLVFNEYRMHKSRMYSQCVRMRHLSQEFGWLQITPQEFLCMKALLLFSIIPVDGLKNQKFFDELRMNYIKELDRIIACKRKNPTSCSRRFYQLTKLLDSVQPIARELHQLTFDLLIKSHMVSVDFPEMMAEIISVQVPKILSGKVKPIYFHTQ
T1 sequence (P10275 whole entry): as the sequence (P10275 whole entry F877L) above, with L877F counted along it

In the case of `CN1CCC(Oc2ccc(N3C(=S)N(c4cnc(C#N)c(C(F)(F)F)c4)C(=O)C34CCC4)cn2)CC12CCC2` (racemic) [Cpd 194, (R,S)-5-[8-[6-[(9-methyl-9-azaspiro[3.5]nonan-6-yl)oxy]-3-pyridyl]-5-oxo-7-thioxo-6,8-diazaspiro[3.4]octan-6-yl]-3-(trifluoromethyl)pyridine-2-carbonitrile], the Emax in assay [1] (setting [5]) is 103%; in assay [2] (setting [5]) it was 103%; in assay [3] (setting [8]) it was -0.3%; in assay [4] (setting [8]), 0.4%. Besides, the IC50 was 155 nM in assay [1] (setting [6]) and 186 nM in assay [2] (setting [7]). The EC50 in assay [3] (setting [9]) and in assay [4] (setting [10]) was more than 15.1 µM in each case.
As to `COCCn1ncc2ccc(N3C(=S)N(c4cnc(C#N)c(C(F)(F)F)c4)C(=O)C34CCC4)cc21` [Cpd 160, 5-[8-[1-(2-methoxyethyl)indazol-6-yl]-5-oxo-7-thioxo-6,8-diazaspiro[3.4]octan-6-yl]-3-(trifluoromethyl)pyridine-2-carbonitrile], the values for the IC50 in assay [1] (setting [6]) and in assay [2] (setting [7]) were 1230 nM and 708 nM, respectively. Moreover, the Emax stood at 103% in assay [1] (setting [11]), 101% in assay [2] (setting [11]), 0.1% in assay [3] (setting [12]) and 0% in assay [4] (setting [12]). Further, the EC50 in assay [3] (setting [9]) and in assay [4] (setting [10]) was more than 15.1 µM each time.
On to `CN1CCC(Cn2ncc3cc(N4C(=S)N(c5cnc(C#N)c(C(F)(F)F)c5)C(=O)C45CCC5)ccc32)CC1` [Cpd 132, 5-(5-(1-((1-methylpiperidin-4-yl)methyl)-1H-indazol-5-yl)-8-oxo-6-thioxo-5,7-diazaspiro[3.4]octan-7-yl)-3-(trifluoromethyl)picolinonitrile], for which the figures for the IC50 in assay [1] (setting [6]) and in assay [2] (setting [7]) were 372 nM and 148 nM, respectively. The Emax in assay [1] (setting [11]) was 101%; in assay [2] (setting [11]), 98.7%; in assay [3] (setting [12]), 0.5%; in assay [4] (setting [12]), 0.9%. Besides, the EC50 in assay [3] (setting [9]) and in assay [4] (setting [10]) was more than 15.1 µM throughout.
In the case of `N#Cc1ncc(N2C(=O)C3(CCC3)N(c3ccc(OC4C5CCC4CNC5)nc3)C2=S)cc1C(F)(F)F` (centres unmarked) [Cpd 139, 5-[8-[6-(3-azabicyclo[3.2.1]octan-8-yloxy)-3-pyridyl]-5-oxo-7-thioxo-6,8-diazaspiro[3.4]octan-6-yl]-3-(trifluoromethyl)pyridine-2-carbonitrile], the figures for the IC50 in assay [1] (setting [6]) and in assay [2] (setting [7]) were 589 nM and 513 nM, respectively. For the same compound, the Emax in assay [1] (setting [11]) is 102%; in assay [2] (setting [11]) it was 99.8%; in assay [3] (setting [12]), 1.2%; in assay [4] (setting [12]), 0.1%. Moreover, the EC50 in assay [3] (setting [9]) and in assay [4] (setting [10]) was more than 15.1 µM each time.
In the case of `CC(C)(C)OC(=O)N1CCN(C(=O)c2ccc(N3C(=S)N(c4cnc(C#N)c(C(F)(F)F)c4)C(=O)C34CCC4)cc2)CC1` [Cpd 32, tert-butyl 4-[4-[6-[6-cyano-5-(trifluoromethyl)-3-pyridyl]-5-oxo-7-thioxo-6,8-diazaspiro[3.4]octan-8-yl]benzoyl]piperazine-1-carboxylate], the IC50 was 2140 nM in assay [1] (setting [6]) and 1120 nM in assay [2] (setting [7]). For the same compound, the Emax in assay [1] (setting [11]) is 64.9%; in assay [2] (setting [11]), 74.1%; in assay [3] (setting [12]) it was 0.4%; in assay [4] (setting [12]), -0.1%. In addition, the EC50 in assay [3] (setting [9]) and in assay [4] (setting [10]) was more than 15.1 µM throughout.
Regarding `CN1CCCC(Oc2ccc(N3C(=S)N(c4cnc(C#N)c(C(F)(F)F)c4)C(=O)C34CCC4)cc2)CC1` (centres unmarked) [Cpd 19, 5-{8-[4-(1-methylazaperhydroepin-4-yloxy)phenyl]-5-oxo-7-thioxo-6,8-diazaspiro[3.4]oct-6-yl}-3-(trifluoromethyl)pyridine-2-carbonitrile], the IC50 in assay [1] (setting [6]) is 661 nM; in assay [2] (setting [7]), 200 nM. The Emax in assay [1] (setting [11]) is 101%; in assay [2] (setting [11]), 101%; in assay [3] (setting [12]) it was 0.3%; in assay [4] (setting [12]) it was 1.6%. The EC50 in assay [3] (setting [9]) and in assay [4] (setting [10]) was more than 15.1 µM throughout.
As for `N#Cc1ncc(N2C(=O)C3(CCC3)N(c3ccc(CN4CCN(CCO)CC4)cc3)C2=S)cc1C(F)(F)F` [Cpd 227, 5-[8-[4-[[4-(2-hydroxyethyl)piperazin-1-yl]methyl]phenyl]-5-oxo-7-thioxo-6,8-diazaspiro[3.4]octan-6-yl]-3-(trifluoromethyl)pyridine-2-carbonitrile], the Emax in assay [1] (setting [5]) was 102%; in assay [2] (setting [5]) it was 100%; in assay [3] (setting [8]) it was -0.2%; in assay [4] (setting [8]), 0.1%. The IC50 in assay [1] (setting [6]) was 513 nM; in assay [2] (setting [7]), 417 nM. Moreover, the EC50 in assay [3] (setting [9]) and in assay [4] (setting [10]) was more than 15.1 µM in each case.
On to `N#Cc1ncc(N2C(=O)C3(CCC3)N(c3ccc(C(=O)NC[C@H]4CCCNC4)c(F)c3)C2=S)cc1C(F)(F)F` [Cpd 204, 4-[6-[6-cyano-5-(trifluoromethyl)-3-pyridyl]-5-oxo-7-thioxo-6,8-diazaspiro[3.4]octan-8-yl]-2-fluoro-N-[[(3S)-3-piperidyl]methyl]benzamide], for which the Emax stood at 102% in assay [1] (setting [5]), 99.7% in assay [2] (setting [5]), 0.1% in assay [3] (setting [8]) and 0% in assay [4] (setting [8]). Further, the IC50 was 2450 nM in assay [1] (setting [6]) and 1950 nM in assay [2] (setting [7]). Besides, the EC50 in assay [3] (setting [9]) and in assay [4] (setting [10]) was more than 15.1 µM each time.
For the compound `CN1CC2CC1CC2Oc1ccc(N2C(=S)N(c3cnc(C#N)c(C(F)(F)F)c3)C(=O)C23CCC3)cn1` [Cpd 177, (R,S)-5-[8-[6-[(2-methyl-2-azabicyclo[2.2.1]heptan-5-yl)oxy]-3-pyridyl]-5-oxo-7-thioxo-6,8-diazaspiro[3.4]octan-6-yl]-3-(trifluoromethyl)pyridine-2-carbonitrile], the IC50 in assay [1] (setting [6]) was 525 nM; in assay [2] (setting [7]), 457 nM. Further, the Emax came to 102% in assay [1] (setting [11]), 100% in assay [2] (setting [11]), 0.2% in assay [3] (setting [12]) and 0.4% in assay [4] (setting [12]). Besides, the EC50 in assay [3] (setting [9]) and in assay [4] (setting [10]) was more than 15.1 µM each time.
As for `CN1CCC[C@@H](CNC(=O)c2ccc(N3C(=S)N(c4cnc(C#N)c(C(F)(F)F)c4)C(=O)C34CCC4)cc2F)C1` [Cpd 200, 4-[6-[6-cyano-5-(trifluoromethyl)-3-pyridyl]-5-oxo-7-thioxo-6,8-diazaspiro[3.4]octan-8-yl]-2-fluoro-N-[[(3S)-1-methyl-3-piperidyl]methyl]benzamide], the Emax in assay [1] (setting [5]) worked out at 99.6%; in assay [2] (setting [5]), 99.1%; in assay [3] (setting [8]), 0.4%; in assay [4] (setting [8]), 0.5%. In addition, the IC50 in assay [1] (setting [6]) was 708 nM; in assay [2] (setting [7]) it was 794 nM. Also, the EC50 in assay [3] (setting [9]) and in assay [4] (setting [10]) was more than 15.1 µM throughout.
Consider `CN(C)C1(c2ccc(N3C(=S)N(c4cnc(C#N)c(C(F)(F)F)c4)C(=O)C34CCC4)cc2)COC1` [Cpd 197, 5-(5-(4-(3-(dimethylamino)oxetan-3-yl)phenyl)-8-oxo-6-thioxo-5,7-diazaspiro[3.4]octan-7-yl)-3-(trifluoromethyl)picolinonitrile], for which the IC50 in assay [1] (LNCaP-AR-wt ANT pIC50) was 1070 nM; in assay [2] (LNCaP-AR-F876L ANT pIC50) it was 447 nM. Further, the Emax in assay [1] was 99.3%; in assay [2], 101%; in assay [3] it was 0.1%; in assay [4], 0.3%. In addition, the EC50 in assay [3] and in assay [4] was more than 15.1 µM throughout.
Consider `CN1C2C=C(c3ccc(N4C(=S)N(c5cnc(C#N)c(C(F)(F)F)c5)C(=O)C45CCC5)cc3)CC1CC2` (centres unmarked) [Cpd 127, 5-[8-[4-(8-methyl-8-azabicyclo[3.2.1]oct-3-en-3-yl)phenyl]-5-oxo-7-thioxo-6,8-diazaspiro[3.4]octan-6-yl]-3-(trifluoromethyl)pyridine-2-carbonitrile], for which the “LNCaP-AR-wt ANT pIC50” value in assay [1] (setting [13]) amounted to 6.23. For the same compound, the Emax worked out at 102% in assay [1] (setting [11]), 102% in assay [2] (setting [11]), 0.5% in assay [3] (setting [12]) and 0.4% in assay [4] (setting [12]). The “LNCaP-AR-F876L ANT pIC50” value in assay [2] (setting [13]) is on record as 6.37. The “LNCaP-AR-wt AG pEC50” value in assay [3] (setting [14]) is reported as less than 4.82. The “LNCaP-AR-F876L AG pEC50” value in assay [4] (setting [14]) is reported as less than 4.82.
In the case of `Cc1cc(N2C(=O)C3(CCC3)N(c3cnc(OC4CCN(C)CC4)nc3)C2=S)cnc1C#N` [Cpd 247, 3-Methyl-5-[8-[2-[(1-methyl-4-piperidyl)oxy]pyrimidin-5-yl]-5-oxo-7-thioxo-6,8-diazaspiro[3,4]octan-6-yl]pyridine-2-carbonitrile], the Emax in assay [1] (setting [5]) is 0%; in assay [2] (setting [5]) it was 99.4%; in assay [3] (setting [8]), -0.1%; in assay [4] (setting [8]), 0.2%. The values for the IC50 in assay [1] (setting [6]) and in assay [2] (setting [7]) were 1000 nM and 1200 nM, respectively. In addition, the EC50 in assay [3] (setting [9]) and in assay [4] (setting [10]) was more than 15.1 µM throughout.
